{
  "source": "patent US20040248861A1",
  "about": "“Modified delta5-androstenes having improved bioavailability” (priority 2003, published 2004)",
  "origin": "cited, not measured here",
  "key": {"[1]": {"details": "patients with normal adrenal function taking supplemental DHEA"}, "[2]": {"test_system": "flu viruses", "details": "mice infected with flu viruses; to some of the viruses"}, "[3]": {"details": "single transdermal dose of 25 mg"}, "[4]": {"details": "monkeys, very high doses (equivalent to about 70 grams/day for a human)"}, "[5]": {"assay": "not given", "remark": "listed apart in the source"}, "[6]": {"details": "200 mg/day for 28 days"}, "[7]": {"details": "supplement to diet"}, "[8]": {"test_system": "virus similar to HIV", "details": "doses as low as 8 mg/kg/day"}},
  "data": [
    {"smiles": "CCCCCCCCCCC(=O)O[C@H]1CC[C@H]2[C@@H]3CCC4=CC(=O)CC[C@]4(C)[C@H]3CC[C@]12C", "note": "[testosterone undecanoate]", "values": [
      {"measurement": "increase in serum levels of testosterone", "setting": "single oral dose of 100 mg, dissolved in oil", "value": 2.3, "unit": "fold"}
    ]},
    {"smiles": "C[C@]12CC[C@H]3[C@@H](CCC4=CC(=O)CC[C@@]43C)[C@@H]1CC[C@@H]2O", "note": "[free testosterone, testosterone]", "values": [
      {"measurement": "effect on serum levels of testosterone", "setting": "oral, equivalent dose (63 mg)", "value": "no noticeable effect"}
    ]},
    {"smiles": "C[C@]12CC[C@H](O)CC1=CC[C@@H]1[C@@H]2CC[C@]2(C)C(=O)CC[C@@H]12", "note": "[DHEA, dehydroepiandrosterone]", "values": [
      {"measurement": "acne (share of patients)", "setting": "[1]", "value": "over 50%"}
    ]},
    {"smiles": "C[C@]12CC[C@H](O)CC1=CC(=O)[C@@H]1[C@@H]2CC[C@]2(C)C(=O)CC[C@@H]12", "note": "[7-keto-DHEA, 7-keto-dehydroepiandrosterone]", "values": [
      {"measurement": "anti-viral antibodies", "setting": "[2]", "value": "increase"},
      {"measurement": "blood levels of HDL-cholesterol", "setting": "[3]", "value": "improved"},
      {"measurement": "salivation", "setting": "[4]", "value": "caused excess salivation"},
      {"measurement": "metabolism to estrogens or testosterone", "setting": "[5]; in vivo", "value": "does not metabolize"},
      {"measurement": "estradiol levels in the blood", "setting": "[5]; supplementary 7-keto-DHEA", "value": "decrease"},
      {"measurement": "testosterone levels in the blood", "setting": "[5]; supplementary 7-keto-DHEA", "value": "decrease"},
      {"measurement": "safety problems in clinical trials", "setting": "[6]", "value": "no safety problems"},
      {"measurement": "T3 thyroid stimulating hormone", "setting": "[7]", "value": "increased"},
      {"measurement": "body fat", "setting": "[7]", "value": "statistically significant decreased"},
      {"measurement": "bodyweight", "setting": "[7]", "value": "statistically significant decreased"},
      {"measurement": "bodyweight", "setting": "[8]", "value": "regained bodyweight"}
    ]}
  ]
}
